According to US6358885B1, “Substituted phenylheterocyclic herbicides” (Mississippi State University, priority 1992, dated 2002):

Test system: speedwell
Test: Test C preemergence/postemergence greenhouse plant response rating 0 to 100
Type: in vivo, Veronica persica
Settings: for Plant response rating Speedwell: 0 to 100 scale
From the text: The compounds evaluated in this test were formulated in a non-phytoxic solvent and applied to the soil surface before plant seedlings emerged (preemergence application), to water that covered the soil surface (flood application), and to plants that were in the one-to-four leaf stage (postemergence application). A sandy loam soil was used for the preemergence and postemergence tests, while a silt loam soil was used in the flood test. Water depth was approximately 2.5 cm for the flood test and was maintained at this level for the duration of the test. Plant species in the preemergence and postemergence tests consisted of barley (Hordeum vulgare), bedstraw (Galium aparine), blackgrass (Alopecurus myosuroides), chickweed (Stellaria media), corn (Zea mays), cotton (Gossypium hirsutum), crabgrass (Digitaria sanguinalis), downy brome (Bromus tectorum), giant foxtail (Setaria faberii), lambsquarters (Chenopodium album), morningglory (Ipomoea hederacea), pigweed ([…]), rape (Brassica napus), ryegrass (Lolium multiflorum), sorghum (Sorghum bicolor), soybean (Glycine max), speedwell (Veronica persica), sugar beet (Beta vulgaris), velvetleaf (Abutilon theophrasti), wheat (Triticum aestivum), wild buckwheat (Polygonum convolvulus), and wild oat (Avena fatua). All plant species were planted one day before application of the compound for the preemergence portion-of this test. Plantings of these species were adjusted to produce plants of appropriate size for the post-emergence portion of the test. […] All plant species were grown using normal greenhouse practices. Visual evaluations of injury expressed on treated plants, when compared to untreated controls, were recorded approximately fourteen to twenty one days after application of the test compound. […] A dash (-) response means no test result.

Structure (SMILES) | Plant response rating Speedwell (POSTEMERGENCE, 62 g/ha) | Plant response rating Speedwell (POSTEMERGENCE, 125 g/ha) | Plant response rating (0 to 100), Speedwell (Rate 16 g/ha, POSTEMERGENCE) | Plant response rating (0 to 100), Speedwell (Rate 31 g/ha, POSTEMERGENCE) | Plant response rating (0 to 100), Speedwell (POSTEMERGENCE, Rate 1 g/ha) | Plant response rating (0 to 100), Speedwell (POSTEMERGENCE, Rate 4 g/ha) | other results
C=CCN1C(=O)COc2cc(F)c(-c3nn4c(c3Br)CCCC4)cc21 [Compound 41] | 100 | 100 | 100 | 100 |  |  | 
C#CC(C)N1C(=O)COc2cc(F)c(-c3nn4c(c3Cl)CCCC4)cc21 (stereo not drawn) [Compound 50] | 100 |  | 100 |  | 0 | 70 | 
CCOCOc1cc(-c2nn3c(c2Cl)CCCC3)c(F)cc1Cl [Compound 59] |  | 100 |  | 100 |  |  | Plant response rating (0 to 100), Speedwell (POSTEMERGENCE, Rate 2 g/ha): 100; Plant response rating Speedwell (PREEMERGENCE, 125 g/ha): 100; Plant response rating (0 to 100), Speedwell (Rate 8 g/ha, POSTEMERGENCE): 100; Plant response rating (0 to 100), Speedwell (Rate 8 g/ha, PREEMERGENCE): 50; Plant response rating (0 to 100), Speedwell (Rate 31 g/ha, PREEMERGENCE): 100
CCCN1C(=O)COc2cc(F)c(-c3nn4c(c3Br)CCCC4)cc21 [Compound 63] |  |  |  |  |  |  | Plant response rating Speedwell (PREEMERGENCE, 250 g/ha): 100; Plant response rating (0 to 100), Speedwell (PREEMERGENCE, Rate 4 g/ha): 0; Plant response rating (0 to 100), Speedwell (Rate 16 g/ha, PREEMERGENCE): 90
CCN1C(=O)COc2cc(F)c(-c3nn4c(c3Cl)CCCC4)cc21 [Compound 54] | 100 |  | 100 |  | 100 | 100 | Plant response rating (0 to 100), Speedwell (PREEMERGENCE, Rate 1 g/ha): 50; Plant response rating (0 to 100), Speedwell (PREEMERGENCE, Rate 4 g/ha): 100; Plant response rating (0 to 100), Speedwell (Rate 16 g/ha, PREEMERGENCE): 100
C#CC(C)Oc1cc(-c2nn3c(c2Br)CCCC3)c(F)cc1Cl (stereo not drawn) [Compound 66] | 100 |  | 100 |  |  | 100 | Plant response rating Speedwell (POSTEMERGENCE, 250 g/ha): 100; Plant response rating Speedwell (PREEMERGENCE, 250 g/ha): 100; Plant response rating (0 to 100), Speedwell (PREEMERGENCE, Rate 4 g/ha): 0; Plant response rating (0 to 100), Speedwell (Rate 16 g/ha, PREEMERGENCE): 90
Fc1cc(Cl)ccc1-c1nn2c(c1Br)CCCC2 [Compound 52] |  | 100 |  | 100 |  |  | Plant response rating Speedwell (PREEMERGENCE, 125 g/ha): 100; Plant response rating (0 to 100), Speedwell (PREEMERGENCE, Rate 2 g/ha): 0; Plant response rating (0 to 100), Speedwell (Rate 8 g/ha, POSTEMERGENCE): 30; Plant response rating (0 to 100), Speedwell (Rate 8 g/ha, PREEMERGENCE): 0; Plant response rating (0 to 100), Speedwell (Rate 31 g/ha, PREEMERGENCE): 20
CCOC(=O)COc1cc(-c2nn3c(c2Cl)CCCC3)c(F)cc1Cl [Compound 42] | 100 | 100 | 95 | 100 |  |  | 
C=C(Cl)COc1cc(-c2nn3c(c2Cl)CCCC3)c(F)cc1Cl [Compound 40] | 100 | 100 | 90 | 95 |  |  | 
CC(C)Oc1cc(-c2nn3c(c2Br)CCCC3)c(F)cc1Cl [Compound 38] |  |  |  |  |  |  | Plant response rating (0 to 100), Speedwell (PREEMERGENCE, Rate 1 g/ha): 0; Plant response rating (0 to 100), Speedwell (PREEMERGENCE, Rate 4 g/ha): 0; Plant response rating (0 to 100), Speedwell (Rate 16 g/ha, PREEMERGENCE): 0
COCN1C(=O)COc2cc(F)c(-c3nn4c(c3Br)CCCC4)cc21 [Compound 67] | 100 |  | 100 |  | 90 | 100 | 
COCOc1cc(-c2nn3c(c2Cl)CCCC3)c(F)cc1Cl [Compound 58] |  | 100 |  | 100 |  |  | Plant response rating (0 to 100), Speedwell (POSTEMERGENCE, Rate 2 g/ha): 40; Plant response rating Speedwell (PREEMERGENCE, 125 g/ha): 100; Plant response rating (0 to 100), Speedwell (PREEMERGENCE, Rate 2 g/ha): 0; Plant response rating (0 to 100), Speedwell (Rate 8 g/ha, POSTEMERGENCE): 70; Plant response rating (0 to 100), Speedwell (Rate 8 g/ha, PREEMERGENCE): 100; Plant response rating (0 to 100), Speedwell (Rate 31 g/ha, PREEMERGENCE): 100
C#CCN1C(=O)COc2cc(F)c(-c3nn4c(c3Br)CCCC4)cc21 [Compound 56] | 100 |  | 100 |  | 100 | 100 | 
Fc1cc(Cl)c(OCCCl)cc1-c1nn2c(c1Cl)CCCC2 [Compound 49] | 100 |  | 100 |  |  | 85 | Plant response rating Speedwell (POSTEMERGENCE, 250 g/ha): 100
COCN1C(=O)COc2cc(F)c(-c3nn4c(c3Cl)CCCC4)cc21 [Compound 55] | 100 |  | 100 |  | 60 | 100 | 
CC(C)OC(=O)COc1cc(-c2nn3c(c2Cl)CCCC3)c(F)cc1Cl [Compound 39] | 95 | 100 | 90 | 90 |  |  | 
